# Experimental data reported in the supplement of paper PMC11451515.
# Test system: P12-Ichikawa
# Experiment: cell viability relative to DMSO control; higher = less cytotoxic
# Details: 48 h
# Summary of the method: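 Viability values are per-plate percentages of DMSO wells, with background from cell-free wells. Library compounds in DMSO were pin-dosed, in an 11-point threefold series from 47 μM to 0.79 nM, onto NOMO1 or SEM (500 cells/well) or P12-Ichikawa (1000 cells/well) leukemia cells in 1536-well plates (5 μl). Those cells had been adapted for at least four passages in each medium, and CellTiter-Glo One luminescence was read after 48 h at 37°C.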
# [1] = HPLM + 10% dialyzed FBS, 0.000781 µM
# [2] = HPLM + 10% dialyzed FBS, 0.00234 µM
# [3] = HPLM + 10% dialyzed FBS, 0.00702 µM
# [4] = HPLM + 10% dialyzed FBS, 0.0211 µM
# [5] = HPLM + 10% dialyzed FBS, 0.0632 µM
# [6] = HPLM + 10% dialyzed FBS, 0.19 µM
# [7] = HPLM + 10% dialyzed FBS, 0.569 µM
# [8] = HPLM + 10% dialyzed FBS, 1.71 µM
# [9] = HPLM + 10% dialyzed FBS, 5.12 µM
# [10] = HPLM + 10% dialyzed FBS, 15.4 µM
# [11] = HPLM + 10% dialyzed FBS, 46.1 µM
# [12] = RPMI 5 mM glucose + 10% FBS, 0.000781 µM
# [13] = RPMI 5 mM glucose + 10% FBS, 0.00234 µM
# [14] = RPMI 5 mM glucose + 10% FBS, 0.00702 µM
# [15] = RPMI 5 mM glucose + 10% FBS, 0.0211 µM
# [16] = RPMI 5 mM glucose + 10% FBS, 0.0632 µM
# [17] = RPMI 5 mM glucose + 10% FBS, 0.19 µM
# [18] = RPMI 5 mM glucose + 10% FBS, 0.569 µM
# [19] = RPMI 5 mM glucose + 10% FBS, 1.71 µM
# [20] = RPMI 5 mM glucose + 10% FBS, 5.12 µM
# [21] = RPMI 5 mM glucose + 10% FBS, 15.4 µM
# [22] = RPMI 5 mM glucose + 10% FBS, 46.1 µM
# [23] = RPMI 5 mM glucose + 10% dialyzed FBS, 0.000781 µM
# [24] = RPMI 5 mM glucose + 10% dialyzed FBS, 0.00234 µM
# [25] = RPMI 5 mM glucose + 10% dialyzed FBS, 0.00702 µM
# [26] = RPMI 5 mM glucose + 10% dialyzed FBS, 0.0211 µM
# [27] = RPMI 5 mM glucose + 10% dialyzed FBS, 0.0632 µM
# [28] = RPMI 5 mM glucose + 10% dialyzed FBS, 0.19 µM
# [29] = RPMI 5 mM glucose + 10% dialyzed FBS, 0.569 µM
# [30] = RPMI 5 mM glucose + 10% dialyzed FBS, 1.71 µM
# [31] = RPMI 5 mM glucose + 10% dialyzed FBS, 5.12 µM
# [32] = RPMI 5 mM glucose + 10% dialyzed FBS, 15.4 µM
# [33] = RPMI 5 mM glucose + 10% dialyzed FBS, 46.1 µM
SMILES,cell viability [1] [%],cell viability [2] [%],cell viability [3] [%],cell viability [4] [%],cell viability [5] [%],cell viability [6] [%],cell viability [7] [%],cell viability [8] [%],cell viability [9] [%],cell viability [10] [%],cell viability [11] [%],cell viability [12] [%],cell viability [13] [%],cell viability [14] [%],cell viability [15] [%],cell viability [16] [%],cell viability [17] [%],cell viability [18] [%],cell viability [19] [%],cell viability [20] [%],cell viability [21] [%],cell viability [22] [%],cell viability [23] [%],cell viability [24] [%],cell viability [25] [%],cell viability [26] [%],cell viability [27] [%],cell viability [28] [%],cell viability [29] [%],cell viability [30] [%],cell viability [31] [%],cell viability [32] [%],cell viability [33] [%]
Cc1onc(-c2ccccc2)c1C(=O)N[C@@H]1C(=O)N2[C@@H]1SC(C)(C)[C@@H]2C(=O)[O-].[Na+],109,116,120,108,116,113,113,104,86.4,81.3,77.2,114,117,111,111,130,122,112,85.3,71,71.8,68.2,104,112,131,139,123,100,92.7,89.6,75.9,62.4,67.8
CC(O)C1C2C(C)\C(=C(/N2C1=O)C(O)=O)SC3CNC(C3)C(=O)N(C)C (centres undefined),84,82.1,86.8,88.3,93.2,92.9,99.6,96.5,90.4,92.8,88.1,77.1,78.2,79.4,81.7,82.3,85.5,82.7,77.6,84.7,88.2,85.6,85.7,80,85.8,88,88.8,89.2,86.2,86.2,86.5,88.2,95.5
CC/1=C(\O)C(=O)\C=C2/C1=C/C=C3\[C@@]2(C)CC[C@@]4(C)[C@@H]5C[C@@](C)(CC[C@]5(C)CC[C@]34C)C(O)=O,105,96.7,103,103,114,109,104,98.5,56.4,5.75,5.87,97.4,97.3,104,96.9,102,97.2,106,75.9,22.5,5.4,4.66,96.1,94.9,98.8,101,95.6,94.8,97.9,71.1,16.6,5.81,4.82
Cc1nc(Nc2n[nH]c3c2CN(C(=O)N[C@H](CN(C)C)c2ccccc2)C3(C)C)c2sccc2n1,84.9,84.7,76.4,81,75.1,73.5,72.6,53.9,52.3,45.4,15.6,82.3,81.7,70.8,60,62.3,59.3,53.4,38.5,41.4,27.7,12.8,80,81.4,77.2,72.1,63.6,56,51.4,40.6,38.8,32.3,15.8
CN(C)C1=C(Br)C=C(C=C1)C\2NC3=C(\C4=C2C(=O)CC(C)(C)C4)C5=CC=CC=C5C=C3 (centres undefined),116,96.7,118,116,116,113,106,108,107,103,108,112,115,116,104,111,100,109,101,105,102,107,112,111,110,113,117,109,102,111,101,97,104
C[C@](N)(Cc1ccc(O)c(O)c1)C(=O)O,95.1,90.6,91.4,96.8,102,87.7,77,90.4,87.8,81.2,84.8,90.8,93.3,87.2,89.3,93.3,92.9,83.2,81.1,81,80.8,84.9,85.1,85.1,83.5,88.2,89.3,82.1,82.5,81.8,76.1,81.8,81.4
COc1cc(CNC(=O)CCCC/C=C/C(C)C)ccc1O,108,99.4,106,102,102,101,13.3,11,11,12.3,14.1,104,105,109,106,104,119,95.2,12.2,12.2,10.1,10.5,111,103,106,108,116,112,32.9,21.3,22.2,14.3,15.7
COC(=O)\C1=C\CCN(C)C1,111,106,105,100,103,108,96.9,102,93.7,102,105,102,115,113,104,102,108,111,115,107,98.4,101,101,101,97,96.1,96.3,99.8,102,101,93,99,93.3
CC(C)(O)c1cc2nc(-c3cnc(N)nc3)nc(N3CCOCC3)c2s1,120,121,122,125,118,111,108,86.2,74.1,72.6,70,117,127,121,112,114,103,81.8,66.5,61,49.4,48.8,,,,,,,,,,,
NC(=O)OCC(COC(N)=O)c1ccccc1,,,,,,,,,,,,118,123,120,118,126,113,136,115,116,113,108,,,,,,,,,,,
C[C@@]1(C(=O)Nc2ccc(F)nc2)CCCN1c1nc(Nc2cc(C3CC3)[nH]n2)c2cccn2n1,103,109,111,112,114,112,117,114,11.6,15.1,18.6,119,116,130,113,124,120,124,116,21.9,23.2,27.5,107,122,135,121,129,126,131,121,32.2,41,43
N=C1N[C@H]2[C@H](CS[C@H]2CCCCC(=O)O)N1,108,116,110,118,124,119,130,114,123,119,113,123,130,121,134,135,131,125,126,135,126,139,114,124,111,129,117,126,121,117,126,126,116
CCN1CCN(C(=O)Cc2ccc(Nc3ncc(F)c(Nc4ccc(C(=O)Nc5ccccc5Cl)cc4)n3)cc2)CC1,107,105,108,108,116,118,116,107,60.1,48.1,26.2,105,108,112,111,115,122,111,114,73.2,50.9,41,119,111,112,125,131,121,107,107,79.2,52.6,45.6
NC(=O)c1ncn([C@@H]2O[C@H](CO)[C@@H](O)[C@H]2O)c1O,,,,,,,,,,,,129,123,119,130,124,126,133,123,111,117,108,118,126,113,123,122,121,123,122,109,110,104
COc1cccc2c1[C@]13CCN(CC4CC4)[C@H](C2)[C@]1(OC)CCC(=O)C3,99.7,120,66.7,124,125,122,121,121,127,116,119,94.6,113,56.9,110,136,129,127,121,123,117,123,92.9,120,68.7,120,123,127,133,118,122,127,116
CN1CCN(C(=O)O[C@H]2c3nccnc3C(=O)N2c2ccc(Cl)cn2)CC1,112,108,105,111,104,110,103,108,101,98.2,99.9,96.8,102,106,106,101,106,103,95.5,93,95.1,88,98.6,102,98.9,105,92.9,102,101,99.1,102,93.6,85.1
